# US9255090B2, “Heterocyclyl derivatives and their use as prostaglandin D2 receptor modulators” (Actelion Pharmaceuticals Ltd., priority 2012, dated 2016)
# How the values were obtained:
# [1] = system: eosinophils; test: Eosinophil shape change assay with human plasma; format: cell-based; details: Homo sapiens, Eosinophil, human plasma (50%), PGD2 100 nM activation, antagonistic activity
# Excerpt: Eosinophil Shape Change Assay with Human Plasma
# After obtaining informed consent, blood samples were drawn by venipuncture according to the protocol approved by the ethics committee of Basel, Switzerland. Polymorphonuclear leukocytes (containing eosinophils, basophils and neutrophils) were isolated using the Polymorphprep™ method (Axis-Shield). […] The polymorphonuclear cell fraction was harvested and depleted for erythrocytes by hypotonic saline lysis.
# The polymorphonuclear cells were resuspended in assay buffer (1×PBS with Ca^2+/Mg^2+ supplemented with 0.1% BSA, 10 mM HEPES, and 10 mM Glucose, pH 7.4) at 5×10^6 cells/ml and stained with anti-CD49d-APC ((APC=Allophycocyanin) for 1 hour at RT. Test compounds, at various concentrations, were preincubated 10 min in human plasma (anticoagulated with a thrombin inhibitor). Then, human plasma was added to the polymorphonuclear cells to 50% of final assay volume with polymorphonuclear cells at 4×10^6 cells/ml. After incubation for 10 minutes at 37° C., the polymorphonuclear cells were activated for 5 min at 37° C. by addition of PGD2 at 100 nM final concentration. Activation was stopped by addition of 0.5 ml paraformaldehyde (1%).
# Immediately after fixation with paraformaldehyde, the samples were analyzed by FACSCanto flow cytometer (BD Biosciences) and target cells were identified by their forward-scatter (FSC) and side-scatter (SSC) characteristics. Eosinophils were identified by the anti-CD49d-APC signal and their characteristic side-scatter (SSC) profile. Shape change responses, indicative of eosinophil activation, were quantified as the percent of cells with an increased forward-scatter.
# [2] = biological target: hCRTH2 receptor (Homo sapiens (Human), UniProt Q9Y5Y4); test: hCRTH2 receptor membranes radioligand (3H-PGD2) displacement assay; format: binding; details: 3H-PGD2 radioligand displacement, HEK293-hCRTH2 membranes
# hCRTH2 receptor, sequence (Q9Y5Y4 whole entry): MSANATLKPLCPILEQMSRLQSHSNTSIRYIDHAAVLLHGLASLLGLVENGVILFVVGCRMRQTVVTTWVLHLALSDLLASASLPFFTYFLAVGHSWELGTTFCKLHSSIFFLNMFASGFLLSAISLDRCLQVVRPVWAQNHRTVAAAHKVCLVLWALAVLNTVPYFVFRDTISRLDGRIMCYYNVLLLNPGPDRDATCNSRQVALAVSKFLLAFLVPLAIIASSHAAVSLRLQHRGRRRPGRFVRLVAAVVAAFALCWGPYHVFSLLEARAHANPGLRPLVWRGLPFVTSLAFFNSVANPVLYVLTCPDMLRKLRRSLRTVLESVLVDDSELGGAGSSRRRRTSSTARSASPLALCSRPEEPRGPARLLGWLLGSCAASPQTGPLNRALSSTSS
# How it was run: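 HEK293-hCRTH2 membranes, 20 μg/well; 3H-PGD2 added at 2.5 nM; binding buffer 50 mM Tris, 10 mM MnCl2, 1 mM EDTA, pH 7.0; 90 min RT; GF/C filtration, scintillation count. Nonspecific binding: PGD2 at […].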
SMILES,IC50 [1],IC50 [2]
"COc1ccc(CC(=O)O)cc1-c1ccc(F)c2c1CN(C(=O)CCc1c(C)[nH]c3ccccc13)CC2 [Example 61, (3-{5-Fluoro-2-[3-(2-methyl-1H-indol-3-yl)-propionyl]-1,2,3,4-tetrahydro-isoquinolin-8-yl}-4-methoxy-phenyl)-acetic acid]",52 nM,8 nM
"COc1cc(CC(=O)O)ccc1-c1ccc(F)c2c1CN(C(=O)CCCc1ccccc1)CC2 [Example 187, {4-[5-Fluoro-2-(4-phenyl-butyryl)-1,2,3,4-tetrahydro-isoquinolin-8-yl]-3-methoxy-phenyl}-acetic acid]",91 nM,0.89 nM
"COc1ccc(CC(=O)O)cc1-c1cc(F)c(F)c2c1CN(C(=O)OCc1ccccc1)CC2 [Example 31, 8-(5-Carboxymethyl-2-methoxy-phenyl)-5,6-difluoro-3,4-dihydro-1H-isoquinoline-2-carboxylic acid benzyl ester]",436 nM,12 nM
COc1ccc(CC(=O)O)cc1-c1ccc(F)c2c1CN(C(=O)CC1CCOc3cc(F)ccc31)CC2 (racemic) [Example 243],92 nM,20.6 nM
"CCOc1cc(CC(=O)O)ccc1-c1ccc(F)c2c1CN(C(=O)OCc1cc(F)ccc1F)CC2 [Example 407, 8-(4-Carboxymethyl-2-ethoxy-phenyl)-5-fluoro-3,4-dihydro-1H-isoquinoline-2-carboxylic acid 2,5-difluoro-benzyl ester]",9 nM,2.1 nM
"COc1ccc(CC(=O)O)cc1-c1ccc(F)c2c1CN(C(=O)OCc1ccccc1F)CC2 [Example 146, 8-(5-Carboxymethyl-2-methoxy-phenyl)-5-fluoro-3,4-dihydro-1H-isoquinoline-2-carboxylic acid 2-fluoro-benzyl ester]",266 nM,3.06 nM
"CC(C)Oc1ccc(OCC(=O)O)cc1-c1ccc(F)c2c1CN(C(=O)OCc1ccccc1)CC2 [Example 163, 8-(5-Carboxymethoxy-2-isopropoxy-phenyl)-5-fluoro-3,4-dihydro-1H-isoquinoline-2-carboxylic acid benzyl ester]",141 nM,7.94 nM
"CCOc1ccc(CC(=O)O)cc1-c1ccc(F)c2c1CN(C(=O)OCc1ccccc1)CC2 [Example 195, 8-(5-Carboxymethyl-2-ethoxy-phenyl)-5-fluoro-3,4-dihydro-1H-isoquinoline-2-carboxylic acid benzyl ester]",21 nM,1.06 nM
"O=C(O)Cc1ccc(OC(F)(F)F)c(-c2ccc(F)c3c2CN(C(=O)OCc2ccccc2)CC3)c1 [Example 21, 8-(5-Carboxymethyl-2-trifluoromethoxy-phenyl)-5-fluoro-3,4-dihydro-1H-isoquinoline-2-carboxylic acid benzyl ester]",64 nM,2.19 nM
"COc1cc(CC(=O)O)ccc1-c1ccc(F)c2c1CN(C(=O)OCc1ccccc1)CC2 [Example 166, 8-(4-Carboxymethyl-2-methoxy-phenyl)-5-fluoro-3,4-dihydro-1H-isoquinoline-2-carboxylic acid benzyl ester]",117 nM,4.5 nM
"CCOc1ccc(CC(=O)O)cc1-c1ccc(F)c2c1CN(C(=O)CC1(c3ccccc3)CC1)CC2 [Example 222, (4-Ethoxy-3-{5-fluoro-2-[2-(1-phenyl-cyclopropyl)-acetyl]-1,2,3,4-tetrahydro-isoquinolin-8-yl}-phenyl)-acetic acid]",21 nM,26.4 nM
"O=C(O)COc1ccc(OC(F)(F)F)c(-c2ccc(F)c3c2CN(C(=O)OCc2ccccc2)CC3)c1 [Example 162, 8-(5-Carboxymethoxy-2-trifluoromethoxy-phenyl)-5-fluoro-3,4-dihydro-1H-isoquinoline-2-carboxylic acid benzyl ester]",170 nM,2.47 nM
"COc1ccc(CC(=O)O)cc1-c1ccc(Cl)c2c1CN(C(=O)[C@@H]1C[C@H]1c1cccc(F)c1)CC2 [Example 69, (3-{5-Chloro-2-[(1R,2R)-2-(3-fluoro-phenyl)-cyclopropanecarbonyl]-1,2,3,4-tetrahydro-isoquinolin-8-yl}-4-methoxy-phenyl)-acetic acid]",78 nM,9.58 nM
"COc1ccc(CC(=O)O)cc1-c1ccc(F)c2c1CN(C(=O)CCc1ccccc1)CC2 [Example 54, {3-[5-Fluoro-2-(3-phenyl-propionyl)-1,2,3,4-tetrahydro-isoquinolin-8-yl]-4-methoxy-phenyl}-acetic acid]",184 nM,5.83 nM
"COc1ccc(CC(=O)O)cc1-c1ccc(F)c2c1CN(C(=O)CC1(c3ccccc3)CC1)CC2 [Example 258, (3-{5-Fluoro-2-[2-(1-phenyl-cyclopropyl)-acetyl]-1,2,3,4-tetrahydro-isoquinolin-8-yl}-4-methoxy-phenyl)-acetic acid]",101 nM,2.8 nM
CCOc1ccc(CC(=O)O)cc1-c1ccc(F)c2c1CN(C(=O)C(C)Cc1ccccn1)CC2 (racemic) [Example 351],26 nM,3.1 nM
CCOc1cc(CC(=O)O)ccc1-c1ccc(F)c2c1CN(C(=O)CC(C)c1ccccn1)CC2 (racemic) [Example 344],51 nM,0.9 nM
"COc1ccc(CC(=O)O)cc1-c1cc(F)cc2c1CN(C(=O)OCc1ccccc1)CC2 [Example 32, 8-(5-Carboxymethyl-2-methoxy-phenyl)-6-fluoro-3,4-dihydro-1H-isoquinoline-2-carboxylic acid benzyl ester]",356 nM,10.5 nM
"COc1ccc(CC(=O)O)cc1-c1ccc(F)c2c1CN(C(=O)CCn1nc(C)c3ccccc31)CC2 [Example 125, (3-{5-Fluoro-2-[3-(3-methyl-indazol-1-yl)-propionyl]-1,2,3,4-tetrahydro-isoquinolin-8-yl}-4-methoxy-phenyl)-acetic acid]",113 nM,16.3 nM
COc1cc(CC(=O)O)ccc1-c1ccc(F)c2c1CN(C(=O)CC1CCc3ccccc31)CC2 (racemic) [Example 360],30 nM,6.1 nM
"COc1ccc(CC(=O)O)cc1-c1ccc(F)c2c1CN(C(=O)COCc1ccccc1Cl)CC2 [Example 58, (3-{2-[2-(2-Chloro-benzyloxy)-acetyl]-5-fluoro-1,2,3,4-tetrahydro-isoquinolin-8-yl}-4-methoxy-phenyl)-acetic acid]",122 nM,3.57 nM
CCOc1cc(CC(=O)O)ccc1-c1ccc(F)c2c1CN(C(=O)CC1CCOc3ccccc31)CC2 (racemic) [Example 236],12 nM,0.8 nM
"CCOc1ccc(CC(=O)O)cc1-c1ccc(F)c2c1CN(C(=O)CCc1cccc(C)n1)CC2 [Example 329, (4-Ethoxy-3-{5-fluoro-2-[3-(6-methyl-pyridin-2-yl)-propionyl]-1,2,3,4-tetrahydro-isoquinolin-8-yl}-phenyl)-acetic acid]",21 nM,4.2 nM
"CCOc1ccc(CC(=O)O)cc1-c1ccc(F)c2c1CN(C(=O)C[C@@H](C)c1ccccc1)CC2 [Example 221, {4-Ethoxy-3-[5-fluoro-2-((R)-3-phenyl-butyryl)-1,2,3,4-tetrahydro-isoquinolin-8-yl]-phenyl}-acetic acid]",34 nM,1.2 nM
"CCOc1cc(CC(=O)O)ccc1-c1ccc(F)c2c1CN(C(=O)OCC1CCCCC1)CC2 [Example 397, 8-(4-Carboxymethyl-2-ethoxy-phenyl)-5-fluoro-3,4-dihydro-1H-isoquinoline-2-carboxylic acid cyclohexylmethyl ester]",15 nM,6.8 nM
"CC(C)(C)Oc1ccc(CC(=O)O)cc1-c1ccc(F)c2c1CN(C(=O)OCc1ccccc1)CC2 [Example 419, 8-(2-tert-Butoxy-5-carboxymethyl-phenyl)-5-fluoro-3,4-dihydro-1H-isoquinoline-2-carboxylic acid benzyl ester]",35 nM,2.8 nM
"COc1ccc(CC(=O)O)cc1-c1c(F)cc(F)c2c1CN(C(=O)OCc1ccccc1)CC2 [Example 39, 8-(5-Carboxymethyl-2-methoxy-phenyl)-5,7-difluoro-3,4-dihydro-1H-isoquinoline-2-carboxylic acid benzyl ester]",404 nM,5.89 nM
"CCOc1ccc(CC(=O)O)cc1-c1ccc(F)c2c1CN(C(=O)CC(C)(C)c1ccc(F)cc1)CC2 [Example 223, (4-Ethoxy-3-{5-fluoro-2-[3-(4-fluoro-phenyl)-3-methyl-butyryl]-1,2,3,4-tetrahydro-isoquinolin-8-yl}-phenyl)-acetic acid]",19 nM,15 nM
"CCOc1ccc(CC(=O)O)cc1-c1ccc(F)c2c1CN(C(=O)OCC1CCCC1)CC2 [Example 369, 8-(5-Carboxymethyl-2-ethoxy-phenyl)-5-fluoro-3,4-dihydro-1H-isoquinoline-2-carboxylic acid cyclopentylmethyl ester]",266 nM,8.7 nM
